According to ChEMBL document CHEMBL2203020, “Development of Synthetic Aminopeptidase N/CD13 Inhibitors to Overcome Cancer Metastasis and Angiogenesis” (ACS Med Chem Lett, 2012):
Calls of active or inactive are those of the source. The calls are words filed in the database; no cut-off is given here.

How the values were obtained:
Aminopeptidase N [1] = target: Aminopeptidase N (Homo sapiens, UniProt P15144); test: Inhibition of APN in human ES2 cell surface assessed as inhibition of L-Leu-p-nitroanilide substrate hydrolysis incubated for 5 mins before substrate addition by UV-Vis spectrophotometric analysis
[2] = Cytotoxicity against human ES2 cells assessed as cell growth inhibition rate at 5 ug/ml after 24 hrs by MTT assay; type: cell-based; settings: read-out: GI
B16-BL6 [3] = test: Antimetastatic activity against mouse B16-BL6 cells xenografted in C57BL/6 mouse assessed as decrease in number of pulmonary metastatic colonies at 100 mg/kg/day, ip administered for 13 days measured on day 14; type: functional, organism-based
HUVEC = test: Antiangiogenesis activity against HUVEC assessed as decrease in capillary tubular structure formation at 25 ug/ml after 8 hrs by microscopic analysis; type: functional, cell-based; settings: Homo sapiens
B16-BL6 [4] = test: Antiangiogenic activity against mouse B16-BL6 cells xenografted in C57BL/6 mouse assessed as decrease in number of vessels oriented towards the tumor mass at 100 mg/kg/day, ip administered for 4 days measured on day 5 by dissecting microscopic analysis; type: functional, organism-based
ES2 [5] = test: Inhibition of human ES2 cell invasion after 8 hrs by Matrigel invasion assay; type: functional, cell-based
Aminopeptidase N [6] = target: T1, Aminopeptidase N (Mus musculus, UniProt P97449); test: Inhibition of APN in mouse B16-BL6 cell surface assessed as inhibition of L-Leu-p-nitroanilide substrate hydrolysis incubated for 5 mins before substrate addition by UV-Vis spectrophotometric analysis
T1 sequence (P97449 whole entry): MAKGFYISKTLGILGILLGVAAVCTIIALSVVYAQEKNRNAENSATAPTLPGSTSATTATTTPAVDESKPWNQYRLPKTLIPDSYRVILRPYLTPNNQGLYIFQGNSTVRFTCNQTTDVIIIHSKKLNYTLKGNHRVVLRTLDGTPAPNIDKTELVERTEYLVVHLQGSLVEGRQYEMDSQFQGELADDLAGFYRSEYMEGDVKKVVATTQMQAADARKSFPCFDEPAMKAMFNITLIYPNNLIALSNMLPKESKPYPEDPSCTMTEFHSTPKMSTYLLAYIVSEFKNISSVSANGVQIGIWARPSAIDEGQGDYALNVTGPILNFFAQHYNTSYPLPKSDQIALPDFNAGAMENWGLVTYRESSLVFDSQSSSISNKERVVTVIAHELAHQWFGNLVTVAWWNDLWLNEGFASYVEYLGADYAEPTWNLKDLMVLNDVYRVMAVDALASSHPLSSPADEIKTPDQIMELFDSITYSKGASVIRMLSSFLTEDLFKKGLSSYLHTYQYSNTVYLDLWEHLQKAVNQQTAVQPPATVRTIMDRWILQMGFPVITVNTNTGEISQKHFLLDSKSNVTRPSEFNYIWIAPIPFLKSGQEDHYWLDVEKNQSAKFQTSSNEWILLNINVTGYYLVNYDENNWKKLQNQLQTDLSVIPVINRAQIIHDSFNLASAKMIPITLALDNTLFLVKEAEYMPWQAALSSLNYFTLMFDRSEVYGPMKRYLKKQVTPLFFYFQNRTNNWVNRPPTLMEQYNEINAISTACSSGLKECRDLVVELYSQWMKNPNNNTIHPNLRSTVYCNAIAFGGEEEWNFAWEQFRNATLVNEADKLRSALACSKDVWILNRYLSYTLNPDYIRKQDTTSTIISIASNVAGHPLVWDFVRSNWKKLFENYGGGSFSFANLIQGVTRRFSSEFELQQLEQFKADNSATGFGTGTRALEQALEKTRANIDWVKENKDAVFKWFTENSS

Aminopeptidase N [7] = target: T2, Aminopeptidase N (Sus scrofa, UniProt P15145); test: Inhibition of APN in porcine kidney microsome assessed as inhibition of L-Leu-p-nitroanilide substrate hydrolysis incubated for 5 mins before substrate addition by UV-Vis spectrophotometric analysis; type: microsomes
T2 sequence (P15145 whole entry): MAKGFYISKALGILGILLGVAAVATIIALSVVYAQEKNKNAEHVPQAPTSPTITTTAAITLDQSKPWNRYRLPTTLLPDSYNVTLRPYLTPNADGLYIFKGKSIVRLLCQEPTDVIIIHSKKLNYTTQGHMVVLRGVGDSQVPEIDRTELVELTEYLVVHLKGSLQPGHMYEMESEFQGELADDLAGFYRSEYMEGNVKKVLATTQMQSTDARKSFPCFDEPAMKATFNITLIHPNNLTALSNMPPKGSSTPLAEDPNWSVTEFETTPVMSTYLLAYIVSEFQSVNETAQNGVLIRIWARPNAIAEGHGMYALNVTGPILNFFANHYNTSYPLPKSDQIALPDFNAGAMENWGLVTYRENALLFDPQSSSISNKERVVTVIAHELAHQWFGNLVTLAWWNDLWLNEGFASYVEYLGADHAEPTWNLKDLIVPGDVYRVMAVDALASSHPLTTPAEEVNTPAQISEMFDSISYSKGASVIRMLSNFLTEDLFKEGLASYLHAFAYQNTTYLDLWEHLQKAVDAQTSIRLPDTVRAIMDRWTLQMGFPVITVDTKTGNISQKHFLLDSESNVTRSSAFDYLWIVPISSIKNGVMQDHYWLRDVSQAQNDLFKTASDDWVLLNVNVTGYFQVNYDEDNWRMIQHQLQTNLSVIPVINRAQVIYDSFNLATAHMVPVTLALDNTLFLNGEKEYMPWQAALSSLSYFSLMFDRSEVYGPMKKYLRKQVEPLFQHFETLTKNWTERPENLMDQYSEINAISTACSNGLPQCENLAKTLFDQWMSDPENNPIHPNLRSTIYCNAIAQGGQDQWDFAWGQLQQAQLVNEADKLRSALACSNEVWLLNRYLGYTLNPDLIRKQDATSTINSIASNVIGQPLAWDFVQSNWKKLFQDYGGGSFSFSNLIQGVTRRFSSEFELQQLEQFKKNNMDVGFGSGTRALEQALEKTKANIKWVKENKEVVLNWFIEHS

ES2 [8] = test: Inhibition of human ES2 cell migration at 150 uM by crystal violet staining based microscopic analysis; type: functional
[9] = Cytotoxicity against human ES2 cells assessed as cell growth inhibition rate at 50 ug/ml after 24 hrs by MTT assay; type: cell-based; settings: read-out: GI
[10] = Cytotoxicity against mouse B16-BL6 cells assessed as cell growth inhibition after 24 hrs by MTT assay; type: cell-based
[11] = target: 72 kDa type IV collagenase (Homo sapiens, UniProt P08253); test: Inhibition of recombinant MMP-2 using succinylated gelatin as substrate incubated for 10 mins before addition of substrate measured after 60 mins by UV-Vis spectrophotometric analysis
72 kDa type IV collagenase, sequence (P08253 whole entry): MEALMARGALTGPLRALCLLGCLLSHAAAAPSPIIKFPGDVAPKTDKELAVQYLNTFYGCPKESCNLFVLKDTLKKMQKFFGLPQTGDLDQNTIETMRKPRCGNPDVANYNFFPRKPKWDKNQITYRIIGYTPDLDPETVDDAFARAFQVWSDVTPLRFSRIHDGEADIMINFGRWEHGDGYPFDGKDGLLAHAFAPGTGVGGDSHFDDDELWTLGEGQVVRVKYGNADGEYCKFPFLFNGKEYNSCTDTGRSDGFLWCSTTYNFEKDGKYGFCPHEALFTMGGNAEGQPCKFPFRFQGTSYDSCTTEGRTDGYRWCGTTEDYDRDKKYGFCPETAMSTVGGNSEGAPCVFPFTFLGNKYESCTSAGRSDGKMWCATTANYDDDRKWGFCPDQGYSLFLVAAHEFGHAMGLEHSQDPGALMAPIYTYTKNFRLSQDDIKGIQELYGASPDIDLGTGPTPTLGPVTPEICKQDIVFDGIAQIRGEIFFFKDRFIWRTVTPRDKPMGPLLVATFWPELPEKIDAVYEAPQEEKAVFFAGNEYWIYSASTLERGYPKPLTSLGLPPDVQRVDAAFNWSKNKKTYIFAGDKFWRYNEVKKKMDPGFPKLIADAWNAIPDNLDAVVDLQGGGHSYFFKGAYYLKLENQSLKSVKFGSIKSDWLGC

Aminopeptidase N (Homo sapiens, UniProt P15144), sequence (P15144 whole entry): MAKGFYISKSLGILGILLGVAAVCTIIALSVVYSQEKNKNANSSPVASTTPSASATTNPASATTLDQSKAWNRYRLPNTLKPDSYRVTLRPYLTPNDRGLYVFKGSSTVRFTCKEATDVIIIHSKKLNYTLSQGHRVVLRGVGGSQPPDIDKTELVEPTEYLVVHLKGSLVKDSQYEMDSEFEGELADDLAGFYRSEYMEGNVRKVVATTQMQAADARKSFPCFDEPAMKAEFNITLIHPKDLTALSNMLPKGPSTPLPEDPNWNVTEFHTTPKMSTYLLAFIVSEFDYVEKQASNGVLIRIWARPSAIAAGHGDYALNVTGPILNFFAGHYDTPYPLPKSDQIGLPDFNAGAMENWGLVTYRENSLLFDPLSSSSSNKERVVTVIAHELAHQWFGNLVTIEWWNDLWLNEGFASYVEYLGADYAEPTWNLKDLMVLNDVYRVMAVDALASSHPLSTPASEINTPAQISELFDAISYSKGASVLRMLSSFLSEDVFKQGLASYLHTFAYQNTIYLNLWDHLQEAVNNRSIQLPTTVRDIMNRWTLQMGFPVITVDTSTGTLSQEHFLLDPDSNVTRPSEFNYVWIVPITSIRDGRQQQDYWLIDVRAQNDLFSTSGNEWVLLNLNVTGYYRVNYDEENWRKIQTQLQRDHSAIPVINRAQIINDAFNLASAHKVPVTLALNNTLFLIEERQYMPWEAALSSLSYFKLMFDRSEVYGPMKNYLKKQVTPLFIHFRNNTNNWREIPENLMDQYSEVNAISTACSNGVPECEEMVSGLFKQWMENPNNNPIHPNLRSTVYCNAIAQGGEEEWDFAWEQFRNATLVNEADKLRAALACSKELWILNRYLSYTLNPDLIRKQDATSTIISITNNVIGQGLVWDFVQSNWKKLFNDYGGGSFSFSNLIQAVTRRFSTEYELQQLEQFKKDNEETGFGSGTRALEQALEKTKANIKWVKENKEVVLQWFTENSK

Compound | IC50 (Aminopeptidase N [1]) | IC50 (Aminopeptidase N [7]) | IC50 [11] | inhibition at 24 h, 5 ug/ml [2] | inhibition at 24 h, 50 ug/ml [9] | further results
CC(C)C[C@H](NC(=O)NCc1ccc(F)cc1)C(=O)NO | 0.91 µM | 0.73 µM | > 1000 µM | < 1% | 11.9% | –
Cc1ccc(CNC(=O)N[C@H](C(=O)NO)c2ccccc2)cc1 | – | 1.64 µM | – | – | – | –
O=C(Nc1ccc(F)cc1)N[C@H](C(=O)NO)c1ccccc1 | – | 9.9 µM | – | – | – | –
O=C(Nc1ccccc1)N[C@H](C(=O)NO)c1ccccc1 | – | 5.9 µM | – | – | – | –
CC(C)C[C@H](NC(=O)Nc1ccc(-c2ccccc2)cc1)C(=O)NO | – | 2.1 µM | – | – | – | –
Cc1ccc(NC(=O)N[C@@H](CC(C)C)C(=O)NO)cc1 | 0.94 µM | 0.33 µM | 573 µM | < 1% | 1.78% | inhibition (ES2 [5]): Dose-dependent effect; inhibition (ES2 [8]): Active
O=C(NCc1ccc(F)cc1)N[C@H](C(=O)NO)c1ccccc1 | – | 5 µM | – | – | – | –
Cc1ccc(CNC(=O)N[C@@H](CC(C)C)C(=O)NO)cc1 | 1.5 µM | 0.41 µM | > 1000 µM | < 1% | 1.83% | –
O=C(NCc1ccccc1)N[C@H](C(=O)NO)c1ccccc1 | – | 0.98 µM | – | – | – | –
COc1ccc(CNC(=O)N[C@@H](CC(C)C)C(=O)NO)cc1 | 6.9 µM | 0.83 µM | > 1000 µM | < 1% | < 1% | –
CC(C)C[C@H](NC(=O)NCc1ccco1)C(=O)NO | – | 2.3 µM | – | – | – | –
CC(C)C[C@H](NC(=O)NCc1cccs1)C(=O)NO | – | 0.66 µM | – | – | – | –
COc1ccc(NC(=O)N[C@@H](CC(C)C)C(=O)NO)cc1 | 6.4 µM | 0.57 µM | > 1000 µM | < 1% | 6.85% | –
COc1ccc(CNC(=O)N[C@H](C(=O)NO)c2ccccc2)cc1 | – | 1.03 µM | – | – | – | –
O=C(NCCc1ccccc1)N[C@H](C(=O)NO)c1ccccc1 | – | 1.9 µM | – | – | – | –
CC(C)C[C@H](NC(=O)Nc1ccc(F)cc1)C(=O)NO | – | 2.5 µM | – | – | – | –

Continued, in another order:

IC50 (Aminopeptidase N [1]) | IC50 (Aminopeptidase N [7]) | IC50 [11] | Compound | inhibition at 24 h, 5 ug/ml [2] | inhibition at 24 h, 50 ug/ml [9] | further results
0.48 µM | 0.099 µM | > 1000 µM | CC(C)C[C@H](NC(=O)Nc1cccc2ccccc12)C(=O)NO | < 1% | 3.63% | Activity (B16-BL6 [3]): Active; Activity (HUVEC): Active; Activity (B16-BL6 [4]): Active; inhibition (ES2 [5]): Dose-dependent effect; IC50 (Aminopeptidase N [6]): 2.26 µM; inhibition (ES2 [8]): Active; GI50 at 24 h [10]: > 500 µM
0.79 µM | 0.29 µM | > 1000 µM | COc1cccc(CNC(=O)N[C@@H](CC(C)C)C(=O)NO)c1 | < 1% | < 1% | Activity (B16-BL6 [3]): Active; Activity (HUVEC): Active; Activity (B16-BL6 [4]): Active; inhibition (ES2 [5]): Dose-dependent effect; IC50 (Aminopeptidase N [6]): 5.61 µM; inhibition (ES2 [8]): Active; GI50 at 24 h [10]: > 500 µM
– | 2.8 µM | – | O=C(NCCCCc1ccccc1)N[C@@H](Cc1ccccc1)C(=O)NO | – | – | –
– | 2.7 µM | – | CC(C)C[C@H](NC(=O)Nc1ccccc1)C(=O)NO | – | – | –
1.1 µM | 0.57 µM | > 1000 µM | COc1ccccc1CNC(=O)N[C@@H](CC(C)C)C(=O)NO | < 1% | 3.29% | –
– | 2.3 µM | – | CC(C)C[C@H](NC(=O)NCCCCc1ccccc1)C(=O)NO | – | – | –
3 µM | 0.69 µM | > 1000 µM | CC(C)C[C@H](NC(=O)NCc1cccc(F)c1)C(=O)NO | < 1% | 2.81% | –
– | 2.2 µM | – | O=C(NCCCc1ccccc1)N[C@H](C(=O)NO)c1ccccc1 | – | – | –
– | > 10 µM | – | CC(C)C[C@H](NC(=O)OCCCc1ccccc1)C(=O)NO | – | – | –
– | > 10 µM | – | CC(C)C[C@H](NC(=O)Cc1ccccc1)C(=O)NO | – | – | –
– | 3.4 µM | – | CC(C)C[C@H](NC(=O)NCCCc1ccccc1)C(=O)NO | – | – | –
0.42 µM | 0.05 µM | 545 µM | CC(C)C[C@H](NC(=O)NCc1cccc2ccccc12)C(=O)NO | < 1% | 6.67% | Activity (B16-BL6 [3]): Active; Activity (HUVEC): Active; Activity (B16-BL6 [4]): Active; inhibition (ES2 [5]): Dose-dependent effect; IC50 (Aminopeptidase N [6]): 1.82 µM; inhibition (ES2 [8]): Active; GI50 at 24 h [10]: > 500 µM
– | > 10 µM | – | CC[C@H](C)[C@H](NC(=O)NCCCCc1ccccc1)C(=O)NO | – | – | –
– | 5.5 µM | – | O=C(NCCCCc1ccccc1)N[C@H](C(=O)NO)c1ccccc1 | – | – | –
– | 7 µM | – | CSCC[C@H](NC(=O)NCCCc1ccccc1)C(=O)NO | – | – | –
